Experiment [1] has as its system phospho-MEK. The experiment in a line: phospho-MEK ELISA in ST88 cells. The format is cell-based. The text has this: (§1) Pathway inhibition and anti-proliferative activity of RAF265 in ST88 cells.
(ELISA stands for enzyme-linked immunosorbent assay.)

The test system of experiment [2] is phospho-ERK. Nature of the experiment: phospho-ERK ELISA in ST88 cells. The format is cell-based.
From the text: as §1

The subject of experiment [3] is ST88 cells. Nature of the experiment: Proliferation of ST88 cells. It is filed as cell-based.
From the text: as §1

Experiment [4] concerns VEGF-CHO cells induced angiogenesis. The experiment in a line: Matrigel plug angiogenesis model with VEGF-CHO cells, hemoglobin by Drabkin's reagent. As to conditions: mice, dosed days 1 and 4, plugs excised day 5. It is filed as in vivo. The text has this:
Due to the inhibition of VEGFR-2, RAF265 also has anti-angiogenic activity which may also provide a therapeutic benefit in treating neurofibromas. To confirm that RAF265 inhibits the growth of new blood vessels (i.e., angiogenesis) in vivo, mice were implanted with Matrigel® containing Chinese hamster ovary cells (CHO) overexpressing VEGF and then treated mice with a dose range of RAF265 or a vehicle control (days 1 and 4). In this model, VEGF expressed from the CHO cells induces angiogenesis within the Matrigel® plug. Plugs are excised on day 5 and assayed for hemoglobin using Drabkin's reagent, as a measure of the degree of angiogenesis.

Regarding `Cn1c(Nc2ccc(C(F)(F)F)cc2)nc2cc(Oc3ccnc(-c4ncc(C(F)(F)F)[nH]4)c3)ccc21` [Compound of Example 1], the EC50 – broadly, the concentration at which the effect is half-maximal – in experiment [1] came to 150 nM; in experiment [2], 185 nM; in experiment [3], 207 nM. Also, the “dose of maximal suppression of hemoglobin content” value in experiment [4] is 50 mg/kg. Further, the “hemoglobin content of Matrigel plug” value in experiment [4] is listed as “dose-dependent decrease in hemoglobin content”.

The values above are taken from US20110281917A1, “Substituted Benzimidazoles for the Treatment of Astrocytomas” (priority 2009, published 2011).
